According to patent US20240000806A1, “METHODS AND MATERIALS FOR INHIBITING CB1 ACTIVITY” (University of Pittsburgh - Of the Commonwealth System of …, priority 2020, published 2024):

Molecular target: CB1 (CNR1) (Homo sapiens, UniProt P21554)
Assay: cAMP CNR1 Hunter cell line antagonist assay (CB1 assay)
Format: cell-based
Details: antagonist mode, cAMP CNR1 Hunter cells, EC80 agonist; read-out: CB1 assay, Efficacy (IC50)
Procedure: cAMP CNR1 Hunter cell line (Eurofins DiscoveryX) were expanded from freezer stocks and seeded in a total volume of 20 μL into white walled, 384-well microplates and incubated at 37° C. for the appropriate time prior to testing. For antagonist determination, cell media was aspirated from cells and replaced with 10 μL 1:1 HBSS/Hepes:cAMP XS+Ab reagent. 5 μL of 4× compound was added to the cells and incubated at 37° C. for 30 minutes. 5 μL of 4× EC80 agonist was added to cells and incubated at 37° C. for 30 minutes. After appropriate compound incubation, assay signal was generated through incubation with 20 μL cAMP XS+ED/CL lysis cocktail for one hour followed by incubation with 20 μL cAMP XS+EA reagent for three hours at room temperature. Microplates were read following signal generation with a PerkinElmer Envision™ instrument for chemiluminescent signal detection. Compound activity (IC50) was analyzed using CBIS data analysis suite (ChemInnovation, CA).

Sequence of CB1 (CNR1) (P21554 whole entry): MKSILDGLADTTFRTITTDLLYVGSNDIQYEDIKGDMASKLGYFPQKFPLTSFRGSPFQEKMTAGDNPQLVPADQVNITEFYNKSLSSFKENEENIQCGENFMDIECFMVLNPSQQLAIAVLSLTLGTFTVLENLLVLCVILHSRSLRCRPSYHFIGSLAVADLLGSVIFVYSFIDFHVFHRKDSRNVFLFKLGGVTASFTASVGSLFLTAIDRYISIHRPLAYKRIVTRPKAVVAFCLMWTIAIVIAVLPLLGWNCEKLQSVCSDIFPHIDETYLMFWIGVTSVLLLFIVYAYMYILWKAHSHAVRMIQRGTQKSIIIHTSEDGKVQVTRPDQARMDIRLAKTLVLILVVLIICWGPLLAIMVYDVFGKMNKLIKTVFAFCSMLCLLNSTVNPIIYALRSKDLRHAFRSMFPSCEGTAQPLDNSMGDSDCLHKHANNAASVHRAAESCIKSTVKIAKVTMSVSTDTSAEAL

IC50 [µM] | SMILES
≥ 25 | CC(C)c1ccc(NS(=O)(=O)c2cc(Br)cc3c2OCCNC3=O)cc1 [BC19605]
< 1 | O=C1COc2c(cc(Cl)cc2S(=O)(=O)Nc2ccc(Cl)cc2)N1 [BC19169]
≥ 25 | CC(C)c1ccc(NS(=O)(=O)c2cc(S(C)(=O)=O)cc3c2OCC(=O)N3)cc1 [BC19424]
1 to 25 | CC(C)CC1Oc2c(cc(Br)cc2S(=O)(=O)Nc2ccc(F)cc2F)NC1=O (stereo not drawn) [BC19769]
< 1 | CCC1Oc2cc(S(=O)(=O)Nc3cccc(Cl)c3)c(Cl)cc2NC1=O (stereo not drawn) [BC19751]
≥ 25 | CCS(=O)(=O)c1cc2c(c(S(=O)(=O)Nc3ccc(C)cc3)c1)OCC(=O)N2 [BC19546]
≥ 25 | CC(C)NC(=O)N1c2cc(S(=O)(=O)N3CCCC3)ccc2NC(=O)C1C (stereo not drawn) [BC19298]
≥ 25 | CCC1Oc2c(cc(Br)cc2S(=O)(=O)Nc2ccc(Cl)cc2)N(C)C1=O (stereo not drawn) [BC19929]
< 1 | CCc1cccc(NS(=O)(=O)c2cc3c(cc2Br)NC(=O)CO3)c1 [BC19167]
< 1 | CC(C)c1ccc(NS(=O)(=O)c2cc3c(cc2Cl)NC(=O)CO3)cc1 [BC19136]
≥ 25 | CCS(=O)(=O)c1cc2c(c(S(=O)(=O)Nc3ccc(Cl)cc3)c1)OCC(=O)N2 [BC19491]
1 to 25 | CC1Oc2cc(S(=O)(=O)Nc3ccc(F)cc3Cl)c(Br)cc2NC1=O (stereo not drawn) [BC19285]
≥ 25 | CCc1ccc(NS(=O)(=O)c2cc3c(cc2Cl)NC(=O)C(C)O3)cc1 (stereo not drawn) [BC19702]
1 to 25 | CC1Oc2cc(S(=O)(=O)Nc3ccc(F)cc3F)c(Cl)cc2NC1=O (stereo not drawn) [BC19709]
≥ 25 | CCC1Oc2c(cc(Br)cc2S(=O)(=O)Nc2ccc(C(C)C)cc2)N(C)C1=O (stereo not drawn) [BC19933]
1 to 25 | CCc1ccc(NS(=O)(=O)c2cc(Br)cc3c2OCCC(=O)N3)cc1 [BC19686]
≥ 25 | CS(=O)(=O)c1cc2c(c(S(=O)(=O)Nc3ccc(OC(F)(F)F)cc3)c1)OCC(=O)N2 [BC19422]
1 to 25 | CCC1Oc2cc(S(=O)(=O)Nc3ccc(C)cc3)c(Cl)cc2NC1=O (stereo not drawn) [BC19753]
≥ 25 | CCC1Oc2cc(S(=O)(=O)NC3CCC(O)CC3)c(Br)cc2NC1=O (stereo not drawn) [BC19372]
≥ 25 | CC1Oc2cc(S(=O)(=O)Nc3ccc(OC(F)(F)F)cc3)c(Br)cc2N(C)C1=O (stereo not drawn) [BC19784]
1 to 25 | CCC1Oc2cc(S(=O)(=O)Nc3ccc(F)cc3)c(Cl)cc2NC1=O (stereo not drawn) [BC19731]
< 1 | Cc1ccc(Cl)cc1NS(=O)(=O)c1cc2c(cc1Cl)NC(=O)CO2 [BC19162]

IC50 [µM] | SMILES
1 to 25 | CCC1Oc2cc(S(=O)(=O)Nc3ccc(C)c(Cl)c3)c(Cl)cc2NC1=O (stereo not drawn) [BC19745]
< 1 | Cc1ccc(NS(=O)(=O)c2cc3c(cc2Br)NC(=O)CCO3)cc1 [BC19661]
≥ 25 | CC(C)CC1Oc2c(cc(Br)cc2S(=O)(=O)Nc2cccc(Cl)c2)NC1=O (stereo not drawn) [BC19775]
≥ 25 | O=C1CCOc2cc(S(=O)(=O)Nc3ccccc3)c(Br)cc2N1 [BC19689]
1 to 25 | CCC1Oc2c(cc(Br)cc2S(=O)(=O)NCc2ccc(OC(F)(F)F)cc2)NC1=O (stereo not drawn) [BC19375]
≥ 25 | CC1Oc2c(cc(Br)cc2S(=O)(=O)NC2CCC(O)CC2)NC1=O (stereo not drawn) [BC19366]
≥ 25 | CC(C)CC1Oc2c(cc(Br)cc2S(=O)(=O)Nc2ccc(F)cc2Cl)NC1=O (stereo not drawn) [BC19777]
1 to 25 | CC(C)CC(=O)N1c2cc(S(=O)(=O)N3CCCC3)ccc2NC(=O)C1C (stereo not drawn) [BC19184]
≥ 25 | O=C1CCOc2cc(S(=O)(=O)Nc3cccc(Cl)c3)c(Br)cc2N1 [BC19655]
1 to 25 | CCc1cccc(NS(=O)(=O)c2cc(Br)cc3c2OC(CC(C)C)C(=O)N3)c1 (stereo not drawn) [BC19771]
≥ 25 | COc1ccc(NS(=O)(=O)c2cc(Br)cc3c2OC(C)C(=O)N3C)cc1Cl (stereo not drawn) [BC19909]
1 to 25 | CCC1Oc2c(cc(Cl)cc2S(=O)(=O)Nc2ccc(C)cc2)NC1=O (stereo not drawn) [BC19754]
1 to 25 | CC1Oc2c(cc(Cl)cc2S(=O)(=O)Nc2ccc(F)c(F)c2)NC1=O (stereo not drawn) [BC19699]
1 to 25 | CC1Oc2cc(S(=O)(=O)Nc3cccc(F)c3)c(Cl)cc2NC1=O (stereo not drawn) [BC19713]
1 to 25 | CC1Oc2cc(S(=O)(=O)NC3CCC(C(C)(C)C)CC3)c(Br)cc2NC1=O (stereo not drawn) [BC19361]
≥ 25 | CCC1Oc2c(cc(Br)cc2S(=O)(=O)Nc2ccc(C)c(Cl)c2)N(C)C1=O (stereo not drawn) [BC19937]
1 to 25 | Cc1ccc(NS(=O)(=O)c2cc(Br)cc3c2OCCNC3=O)cc1Cl [BC19607]
≥ 25 | CCS(=O)(=O)c1cc2c(c(S(=O)(=O)Nc3ccc(OC)c(Cl)c3)c1)OCC(=O)N2 [BC19547]
1 to 25 | CC1Oc2cc(S(=O)(=O)Nc3cccc(F)c3)c(Br)cc2N(C)C1=O (stereo not drawn) [BC19903]
≥ 25 | CC1Oc2c(cc(Br)cc2S(=O)(=O)Nc2ccc(F)cc2)N(C)C1=O (stereo not drawn) [BC19911]
≥ 25 | CCC1Oc2c(cc(Cl)cc2S(=O)(=O)Nc2ccc(F)c(F)c2)NC1=O (stereo not drawn) [BC19736]
1 to 25 | CCC1Oc2c(cc(Cl)cc2S(=O)(=O)Nc2ccc(F)cc2)NC1=O (stereo not drawn) [BC19732]

IC50 [µM] | SMILES
≥ 25 | CCC1Oc2cc(S(=O)(=O)Nc3cccc(F)c3)c(Br)cc2NC1=O (stereo not drawn) [BC19220]
≥ 25 | Cc1ccc(NS(=O)(=O)c2c(C)c(Cl)cc3c2OCC(=O)N3)cc1Cl [BC19433]
1 to 25 | CCC1Oc2cc(S(=O)(=O)Nc3ccc(F)cc3F)c(Br)cc2N(C)C1=O (stereo not drawn) [BC19914]
1 to 25 | CC1Oc2cc(S(=O)(=O)Nc3ccccc3)c(Br)cc2N(C)C1=O (stereo not drawn) [BC19790]
≥ 25 | CC1Oc2cc(S(=O)(=O)Nc3ccc(F)c(F)c3)c(Cl)cc2NC1=O (stereo not drawn) [BC19698]
≥ 25 | CCOc1ccc(NS(=O)(=O)c2cc3c(cc2Cl)NC(=O)C(C)O3)cc1 (stereo not drawn) [BC19281]
1 to 25 | CCNS(=O)(=O)c1cc(Cl)cc2c1OC(C)C(=O)N2 (stereo not drawn) [BC19294]
1 to 25 | CC(C)CC1Oc2c(cc(Br)cc2S(=O)(=O)Nc2ccccc2)NC1=O (stereo not drawn) [BC19761]
≥ 25 | CC(C)CC1Oc2c(cc(Br)cc2S(=O)(=O)Nc2ccc(C(C)C)cc2)NC1=O (stereo not drawn) [BC19765]
≥ 25 | CCC1Oc2cc(S(=O)(=O)Nc3ccc(OC)cc3)c(Br)cc2N(C)C1=O (stereo not drawn) [BC19936]
≥ 25 | Cc1ccc(NS(=O)(=O)c2c(C)c(Cl)cc3c2OCC(=O)N3)cc1 [BC19432]
≥ 25 | COc1ccc(NS(=O)(=O)c2cc3c(cc2Cl)NC(=O)C(C)O3)cc1 (stereo not drawn) [BC19706]
≥ 25 | CC(=O)c1cccc(NS(=O)(=O)c2cc3c(cc2C)NC(=O)CO3)c1 [BC19132]
≥ 25 | CC1Oc2cc(S(=O)(=O)Nc3ccc(OC(F)(F)F)cc3)c(Cl)cc2NC1=O (stereo not drawn) [BC19354]
≥ 25 | CC1Oc2cc(S(=O)(=O)Nc3ccc(F)cc3F)c(Br)cc2N(C)C1=O (stereo not drawn) [BC19799]
≥ 25 | CC1Oc2c(cc(Br)cc2S(=O)(=O)Nc2ccc(C(C)C)cc2)N(C)C1=O (stereo not drawn) [BC19793]
≥ 25 | O=C1NCCOc2c1cc(Br)cc2S(=O)(=O)Nc1ccccc1 [BC19553]
≥ 25 | Cc1ccc(NS(=O)(=O)c2cc(Br)cc3c2OCCNC3=O)cc1 [BC19612]
≥ 25 | O=C1NCCOc2c1cc(Br)cc2S(=O)(=O)Nc1ccc(OC(F)(F)F)cc1 [BC19550]
≥ 25 | Cc1ccc(NS(=O)(=O)c2cc(S(C)(=O)=O)cc3c2OCC(=O)N3)cc1F [BC19423]
1 to 25 | CC1Oc2c(cc(Br)cc2S(=O)(=O)Nc2cccc(Cl)c2)N(C)C1=O (stereo not drawn) [BC19904]
1 to 25 | COc1ccc(NS(=O)(=O)c2cc(Br)cc3c2OCCC(=O)N3)cc1Cl [BC19688]
